Legend:
IMC-1 (IL-2 20 ng/mL) [1] = experiment: drug sensitivity score (DSS) (DSS units); higher = more sensitive; extreme values may be limits of the assay; conditions: 72 h
[2] = tested on: normal primary NK cells, pool 3 (3 donors) (IL-2 2.5 ng/mL); experiment: as above; conditions: 72 h
[3] = tested on: normal primary NK cells, pool 2 (3 donors) (IL-2 2.5 ng/mL); experiment: as above; conditions: 72 h
[4] = tested on: normal NK cells expanded with K562-aAPC; experiment: as above; conditions: 72 h; IL-2 2.5 ng/mL
Description: (§1)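 Drug sensitivity and resistance testing on K562-aAPC-expanded normal NK cells: 5 concentrations (10-fold steps over a 10,000-fold range), 72 h at 37 °C, viability by CellTiter-Glo normalised to DMSO and benzethonium chloride controls; DSS from the fitted curve.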

[5] = tested on: normal NK cells expanded with K562-aAPC; experiment: percent inhibition of viability; higher = more inhibition; conditions: 72 h, IL-2 2.5 ng/mL
Description: as §1

IMC-1 (IL-2 20 ng/mL) [6] = experiment: as above; conditions: 72 h
[7] = tested on: normal primary NK cells, pool 3 (3 donors) (IL-2 2.5 ng/mL); experiment: as above; conditions: 72 h
[8] = tested on: normal primary NK cells, pool 2 (3 donors) (IL-2 2.5 ng/mL); experiment: as above; conditions: 72 h
KHYG-1 (IL-2 2.5 ng/mL) [9] = experiment: drug sensitivity score (DSS) (DSS units); higher = more sensitive; extreme values may be limits of the assay; conditions: 72 h
[10] = tested on: normal primary NK cells, pool 1 (3 donors), resting (IL-2 0 ng/mL); experiment: as above; conditions: 72 h
NK-YS (IL-2 2.5 ng/mL) [11] = experiment: as above; conditions: 72 h
DERL-7 (IL-2 2.5 ng/mL) [12] = experiment: as above; conditions: 72 h
[13] = tested on: normal primary NK cells, pool 1 (3 donors) (IL-2 2.5 ng/mL); experiment: as above; conditions: 72 h
NKL (IL-2 2.5 ng/mL) [14] = experiment: as above; conditions: 72 h
KAI3 (IL-2 2.5 ng/mL) [15] = experiment: as above; conditions: 72 h
NK-92 (IL-2 2.5 ng/mL) [16] = experiment: as above; conditions: 72 h
SNK-6 (IL-2 2.5 ng/mL) [17] = experiment: as above; conditions: 72 h
YT (IL-2 2.5 ng/mL) [18] = experiment: as above; conditions: 72 h
KHYG-1 (IL-2 2.5 ng/mL) [19] = experiment: percent inhibition of viability; higher = more inhibition; conditions: 72 h
[20] = tested on: normal primary NK cells, pool 1 (3 donors), resting (IL-2 0 ng/mL); experiment: as above; conditions: 72 h
NK-YS (IL-2 2.5 ng/mL) [21] = experiment: as above; conditions: 72 h
DERL-7 (IL-2 2.5 ng/mL) [22] = experiment: as above; conditions: 72 h
[23] = tested on: normal primary NK cells, pool 1 (3 donors) (IL-2 2.5 ng/mL); experiment: as above; conditions: 72 h
NKL (IL-2 2.5 ng/mL) [24] = experiment: as above; conditions: 72 h
KAI3 (IL-2 2.5 ng/mL) [25] = experiment: as above; conditions: 72 h
NK-92 (IL-2 2.5 ng/mL) [26] = experiment: as above; conditions: 72 h
SNK-6 (IL-2 2.5 ng/mL) [27] = experiment: as above; conditions: 72 h
YT (IL-2 2.5 ng/mL) [28] = experiment: as above; conditions: 72 h

O=C(O)C(=O)O.[NH-][C@@H]1CCCC[C@H]1[NH-].[Pt+2] [Oxaliplatin] (max concentration tested 100000 nM)
Conditions	drug sensitivity score
IMC-1 (IL-2 20 ng/mL) [1]	11.6
[2]	11.3
[3]	10.7
[4]	18.5

percent inhibition of viability [%]
Conditions	10 nM	100 nM	1000 nM	10000 nM	100000 nM
IMC-1 (IL-2 20 ng/mL) [6]	-0.91	5.5	6.16	51.1	101
[5]	0.69	4.04	21.3	86.9	101
[7]	-8.94	-0.68	20.4	44	97.6
[8]	-2.45	-3.26	15.2	44.2	93.1

CN(C)C(=O)c1cc2cnc(Nc3ccc(N4CCNCC4)cn3)nc2n1C1CCCC1 [Ribociclib] (max concentration tested 10000 nM)
Conditions	drug sensitivity score
IMC-1 (IL-2 20 ng/mL) [1]	0
[2]	1.58
[3]	3.47
[4]	3.05

percent inhibition of viability [%]
Conditions	1 nM	10 nM	100 nM	1000 nM	10000 nM
IMC-1 (IL-2 20 ng/mL) [6]	-7.57	-0.52	-5.29	0.27	7.32
[5]	-3.33	-2.59	0.08	20.6	22.7
[7]	-3.67	-4.43	6	1.54	30.9
[8]	-4.92	-2.8	8.5	5.64	48.2

Oc1ncc(N(CCCl)CCCl)c(O)n1 [Uracil mustard] (max concentration tested 10000 nM)
Conditions	drug sensitivity score
DERL-7 (IL-2 2.5 ng/mL) [12]	0
KAI3 (IL-2 2.5 ng/mL) [15]	1.5
KHYG-1 (IL-2 2.5 ng/mL) [9]	0
NK-92 (IL-2 2.5 ng/mL) [16]	1.65
NK-YS (IL-2 2.5 ng/mL) [11]	1.03
NKL (IL-2 2.5 ng/mL) [14]	0.45
SNK-6 (IL-2 2.5 ng/mL) [17]	0
YT (IL-2 2.5 ng/mL) [18]	0
[10]	1.83
[13]	0

percent inhibition of viability [%]
Conditions	DERL-7 (IL-2 2.5 ng/mL) [22]	KAI3 (IL-2 2.5 ng/mL) [25]	KHYG-1 (IL-2 2.5 ng/mL) [19]	NK-92 (IL-2 2.5 ng/mL) [26]	NK-YS (IL-2 2.5 ng/mL) [21]	NKL (IL-2 2.5 ng/mL) [24]	SNK-6 (IL-2 2.5 ng/mL) [27]	YT (IL-2 2.5 ng/mL) [28]	[20]	[23]
1 nM	-3.55	-2.41	-4.85	-13	-4.38	-13	-5.93	-3.44	1.93	1.1
10 nM	-2.92	-4.28	-7.99	2.85	-2.31	-8.44	-12.3	-2.84	12.8	14.8
100 nM	0.29	4.07	-5.32	-5.3	-0.87	1.52	-16.6	-1.58	14.2	6.41
1000 nM	1.68	10.1	0.5	11.1	8.35	7.38	-20.1	6.78	7.77	7.51
10000 nM	-8.73	23.1	6.88	19.6	16.4	14.1	-11.1	8.3	16.2	12.4

Oc1ncc(N(CCCl)CCCl)c(O)n1 [Uramustine] (max concentration tested 10000 nM)
Conditions	drug sensitivity score
IMC-1 (IL-2 20 ng/mL) [1]	0
[2]	0
[3]	0.26
[4]	0.53

percent inhibition of viability [%]
Conditions	1 nM	10 nM	100 nM	1000 nM	10000 nM
IMC-1 (IL-2 20 ng/mL) [6]	-9.69	0.32	0.64	0.1	6.18
[5]	-9.68	-7.07	-4	3.8	14.6
[7]	-4.89	6.36	6.72	4.62	8.5
[8]	-0.88	5.22	7.92	6.65	14.2

CC1(C)CCC(CN2CCN(c3ccc(C(=O)NS(=O)(=O)c4ccc(NCC5CCOCC5)c([N+](=O)[O-])c4)c(Oc4cnc5[nH]ccc5c4)c3)CC2)=C(c2ccc(Cl)cc2)C1 [Venetoclax] (max concentration tested 1000 nM)
Conditions	drug sensitivity score
IMC-1 (IL-2 20 ng/mL) [1]	0
[2]	0.37
[3]	2.56
[4]	0.35

percent inhibition of viability [%]
Conditions	0.1 nM	1 nM	10 nM	100 nM	1000 nM
IMC-1 (IL-2 20 ng/mL) [6]	-3.1	2.12	-1.24	-0.5	5.01
[5]	3.87	-7.3	-4.26	-4.09	18.9
[7]	-10.2	-7.52	-5.3	1.76	14.7
[8]	-15.6	-3.12	0.73	7.62	31.3

CC1(C)CCC(CN2CCN(c3ccc(C(=O)NS(=O)(=O)c4ccc(NCC5CCOCC5)c([N+](=O)[O-])c4)c(Oc4cnc5[nH]ccc5c4)c3)CC2)=C(c2ccc(Cl)cc2)C1 [Venetoclax] (max concentration tested 10000 nM)
Conditions	drug sensitivity score
DERL-7 (IL-2 2.5 ng/mL) [12]	16.2
KAI3 (IL-2 2.5 ng/mL) [15]	33.6
KHYG-1 (IL-2 2.5 ng/mL) [9]	8.64
NK-92 (IL-2 2.5 ng/mL) [16]	5.65
NK-YS (IL-2 2.5 ng/mL) [11]	7.95
NKL (IL-2 2.5 ng/mL) [14]	18.4
SNK-6 (IL-2 2.5 ng/mL) [17]	26.1
YT (IL-2 2.5 ng/mL) [18]	14.1
[10]	34.5
[13]	8.04

percent inhibition of viability [%]
Conditions	DERL-7 (IL-2 2.5 ng/mL) [22]	KAI3 (IL-2 2.5 ng/mL) [25]	KHYG-1 (IL-2 2.5 ng/mL) [19]	NK-92 (IL-2 2.5 ng/mL) [26]	NK-YS (IL-2 2.5 ng/mL) [21]	NKL (IL-2 2.5 ng/mL) [24]	SNK-6 (IL-2 2.5 ng/mL) [27]	YT (IL-2 2.5 ng/mL) [28]	[20]	[23]
1 nM	1.21	27.7	-4.77	-4.75	4.6	5.96	10.4	3.82	-13.2	-1.92
10 nM	17	55.8	-0.91	2.95	3.22	19.3	48.6	7.84	53.6	-1.34
100 nM	36.3	71	1.35	18.2	6.71	45.6	50.4	10.9	87.3	4.44
1000 nM	54.6	91.3	29.1	17	25.8	55.5	74.7	67.4	91.6	36.7
10000 nM	87.8	98.7	82.5	66.6	82.6	85.8	96.6	88.4	91.2	67.1
